System: ABCA1 mRNA
Test: ABCA1 mRNA induction in THP-1 cells, QuantiGene branched DNA assay
Format: cell-based
Conditions: 10 μM test compound, 18-20 hours; for fold induction at 10 µM: Homo sapiens, read-out: ABCA1 Induction Fold Increase over DMSO Vehicle
Procedure: Modulation of expression of ABCA1 mRNA levels by the compounds of the invention was determined in the following assays.
Induction of ABC1 in THP-1 cells, was measured using QuantiGene® branched DNA assay as per manufacturer's instructions. Cultures of THP-1 were grown to subconfluence in DMEM/10% FBS before replacement with DMEM/BSA and 10 and 3 μM concentrations of the test compounds in DMSO for 18-20 hours. After treatment of cells with compounds, the cells were lysed with lysis buffer at 37° C. for 20 minutes. The cell lysate and ABCA1 specific probe (Genospectra, Inc., Fremont, Calif.) mix were added to the 96 well capture plate and hybridized at 53° C. for 16-18 hours. The signal was amplified using the amplifier and label probes provided with the QuantiGene® assay followed by addition of a luminescent alkaline phosphatase substrate, dioxitane. Luminescence was quantified in Victor V plate reader.
Step 1 • Cells are lysed to release mRNA in the presence of target probes. Target mRNA from lysed cells was then captured by hybridization and transferred to the Capture Plate.
Step 2 • Signal amplification was performed by hybridization of the bDNA Amplifier and Label Probe.
Step 3 • Addition of chemiluminescence substrate yielded a QuantiGene® signal proportional to the amount of mRNA present in the sample.
Table 1 presents the relative fold increase in ABCA1 expression over DMSO for various compounds of the invention when tested at a concentration of […].

COC(=O)c1ccc2c(c1)C(C)(C)[C@H]1COc3c(OC)cc(-c4c(C)noc4C)cc3[C@H]1N2 (racemic) [Number 162, (6aR,12aS)-methyl 6a,7,12,12a-tetrahydro-4-methoxy-7,7-dimethyl-2-(3,5-dimethylisoxazol-4-yl)-6H-chromeno[4,3-b]quinoline-9-carboxylate]
fold induction at 10 µM: 7.7

CCOC(=O)c1ccc(-c2ccc3c(c2)C(C)(C)[C@H]2COc4cccc(OC)c4[C@H]2N3)cc1 (relative stereo) [Number 107, ethyl 4-((12aS,6aR)-1-methoxy-7,7-dimethyl-7,12,12a,6a-tetrahydrochromano[4,3-b]quinolin-9-yl)benzoate]
ABCA1 Induction Fold Increase over DMSO Vehicle: 2.9 FOLD INCREASE

CC1(C)c2cc(C(O)(C(F)(F)F)C(F)(F)F)ccc2NC2c3cc(Br)ccc3OCC21 (stereo not drawn) [Number 1, 2-(2-bromo-7,7-dimethyl(7,12,12a,6a-tetrahydrochromano[4,3-b]quinolin-9-yl))-1,1,1,3,3,3-hexafluoropropan-2-ol]
ABCA1 Induction Fold Increase over DMSO Vehicle: 4.4 FOLD INCREASE

CC1(C)c2cc(C(O)(C(F)(F)F)C(F)(F)F)ccc2N[C@H]2c3cc(Br)ccc3OC[C@H]21 [Number 2, 2-((6aS,12aR)-2-bromo-7,7-dimethyl(7,12,12a,6a-tetrahydrochromano[4,3-b]quinolin-9-yl))-1,1,1,3,3,3-hexafluoropropan-2-ol]
ABCA1 Induction Fold Increase over DMSO Vehicle: 5.1 FOLD INCREASE

CC1(C)c2cc(C(O)(C(F)(F)F)C(F)(F)F)ccc2N[C@@H]2c3cc(Br)ccc3OC[C@H]21 [Number 3, 2-((12aS,6aS)-2-bromo-7,7-dimethyl(7,12,12a,6a-tetrahydrochromano[4,3-b]quinolin-9-yl))-1,1,1,3,3,3-hexafluoropropan-2-ol]
ABCA1 Induction Fold Increase over DMSO Vehicle: 3.0 FOLD INCREASE

CC1(C)c2cc(CC(=O)O)ccc2NC2c3cc(Br)ccc3OCC21 (stereo not drawn) [Number 4, 2-(2-bromo-7,7-dimethyl-7,12,12a,6a-tetrahydrochromano[4,3-b]quinolin-9-yl)acetic acid]
ABCA1 Induction Fold Increase over DMSO Vehicle: 2.1 FOLD INCREASE

CC1(C)c2cc(C(N)=O)ccc2NC2c3cc(Br)ccc3OCC21 (stereo not drawn) [Number 5, 2-bromo-7,7-dimethyl-7,12,12a,6a-tetrahydrochromano[4,3-b]quinoline-9-carboxamide]
ABCA1 Induction Fold Increase over DMSO Vehicle: 3.5 FOLD INCREASE

COC(=O)c1cc2c(cc1OC)NC1c3cc(Br)ccc3OCC1C2(C)C (stereo not drawn) [Number 6, methyl 2-bromo-10-methoxy-7,7-dimethyl-7,12,12a,6a-tetrahydrochromano[4,3-b]quinoline-9-carboxylate]
ABCA1 Induction Fold Increase over DMSO Vehicle: 1.6 FOLD INCREASE

COc1ccc2c(c1)C1Nc3ccc(C(O)(C(F)(F)F)C(F)(F)F)cc3C(C)(C)C1CO2 (stereo not drawn) [Number 7, 1,1,1,3,3,3-hexafluoro-2-(2-methoxy-7,7-dimethyl(7,12,12a,6a-tetrahydrochromano[4,3-b]quinolin-9-yl))propan-2-ol]
fold induction at 10 µM: 3.1

CC1(C)c2cc(C(O)(C(F)(F)F)C(F)(F)F)ccc2NC2c3cc(OC(F)(F)F)ccc3OCC21 (stereo not drawn) [Number 8, 2-[7,7-dimethyl-2-(trifluoromethoxy)(7,12,12a,6a-tetrahydrochromano[4,3-b]quinolin-9-yl)]-1,1,1,3,3,3-hexafluoropropan-2-ol]
ABCA1 Induction Fold Increase over DMSO Vehicle: 3.0 FOLD INCREASE

CC1(C)c2cc(C(O)(C(F)(F)F)C(F)(F)F)ccc2N[C@@H]2c3cc(OC(F)(F)F)ccc3OC[C@H]21 [Number 9, 2-[(12aS,6aS)-7,7-dimethyl-2-(trifluoromethoxy)(7,12,12a,6a-tetrahydrochromano[4,3-b]quinolin-9-yl)]-1,1,1,3,3,3-hexafluoropropan-2-ol]
ABCA1 Induction Fold Increase over DMSO Vehicle: 2.4 FOLD INCREASE

CC(C)=CCOC(=O)c1ccc2c(c1)OC[C@@H]1[C@H]2Nc2ccc(B(O)O)cc2C1(C)C [Number 10, 3-methylbut-2-enyl (6aS,12aR)-9-(dihydroxyboramethyl)-7,7-dimethyl-7,12,12a,6a-tetrahydrochromano[4,3-b]quinoline-3-carboxylate]
ABCA1 Induction Fold Increase over DMSO Vehicle: 1.5 FOLD INCREASE

CC(C)=CCOC(=O)c1ccc2c(c1)OCC1C2Nc2ccc(CB(O)O)cc2C1(C)C (stereo not drawn) [Number 11, 3-methylbut-2-enyl 9-(dihydroxyboramethyl)-7,7-dimethyl-7,12,12a,6a-tetrahydrochromano[4,3-b]quinoline-3-carboxylate]
ABCA1 Induction Fold Increase over DMSO Vehicle: 1.7 FOLD INCREASE

CC(C)=CCOC(=O)c1ccc2c(c1)OCC1C2Nc2ccc(C(O)(C(F)(F)F)C(F)(F)F)cc2C1(C)C (stereo not drawn) [Number 12, 3-methylbut-2-enyl 7,7-dimethyl-9-[2,2,2-trifluoro-1-hydroxy-1-(trifluoromethyl)ethyl]-7,12,12a,6a-tetrahydrochromano[4,3-b]quinoline-3-carboxylate]
ABCA1 Induction Fold Increase over DMSO Vehicle: 4.6 FOLD INCREASE

CC(C)=CCOC(=O)c1ccc2c(c1)C1Nc3ccc(C(O)(C(F)(F)F)C(F)(F)F)cc3C(C)(C)C1CO2 (stereo not drawn) [Number 13, 3-methylbut-2-enyl 7,7-dimethyl-9-[2,2,2-trifluoro-1-hydroxy-1-(trifluoromethyl)ethyl]-7,12,12a,6a-tetrahydrochromano[4,3-b]quinoline-2-carboxylate]
ABCA1 Induction Fold Increase over DMSO Vehicle: 3.4 FOLD INCREASE

CC1(C)c2cc(C(O)(C(F)(F)F)C(F)(F)F)ccc2NC2c3ccc(C(=O)O)cc3OCC21 (stereo not drawn) [Number 14, 7,7-dimethyl-9-[2,2,2-trifluoro-1-hydroxy-1-(trifluoromethyl)ethyl]-7,12,12a,6a-tetrahydrochromano[4,3-b]quinoline-3-carboxylic acid]
ABCA1 Induction Fold Increase over DMSO Vehicle: 3.1 FOLD INCREASE

CC(C)=CCOC(=O)c1ccc2c(c1)C1Nc3ccc(B(O)O)cc3C(C)(C)C1CO2 (stereo not drawn) [Number 15, 3-methylbut-2-enyl 9-(dihydroxyboramethyl)-7,7-dimethyl-7,12,12a,6a-tetrahydrochromano[4,3-b]quinoline-2-carboxylate]
ABCA1 Induction Fold Increase over DMSO Vehicle: 1.8 FOLD INCREASE

CC1(C)c2cc(C(O)(C(F)(F)F)C(F)(F)F)ccc2NC2c3cc(C(=O)O)ccc3OCC21 (stereo not drawn) [Number 16, 7,7-dimethyl-9-[2,2,2-trifluoro-1-hydroxy-1-(trifluoromethyl)ethyl]-7,12,12a,6a-tetrahydrochromano[4,3-b]quinoline-2-carboxylic acid]
ABCA1 Induction Fold Increase over DMSO Vehicle: 2.4 FOLD INCREASE

CC1(C)C2=C(Nc3ccc(B(O)O)cc31)c1ccc(C(=O)O)cc1OC2 [Number 17, 9-(dihydroxyboramethyl)-7,7-dimethyl-7,12-dihydro-6H-chromeno[4,3-b]quinoline-3-carboxylic acid]
fold induction at 10 µM: 1.8

Cc1cccc2c1OCC1C2Nc2ccc(C(O)(C(F)(F)F)C(F)(F)F)cc2C1(C)C (stereo not drawn) [Number 18, 1,1,1,3,3,3-hexafluoro-2-(4,7,7-trimethyl(7,12,12a,6a-tetrahydrochromano[4,3-b]quinolin-9-yl))propan-2-ol]
ABCA1 Induction Fold Increase over DMSO Vehicle: 5.3 FOLD INCREASE

COc1cccc2c1OCC1C2Nc2ccc(-c3nnn[nH]3)cc2C1(C)C (stereo not drawn) [Number 19, 4-methoxy-7,7-dimethyl-9-(1,2,3,4-tetraazol-5-yl)-7,12,12a,6a-tetrahydrochromano[4,3-b]quinoline]
ABCA1 Induction Fold Increase over DMSO Vehicle: 5.6 FOLD INCREASE

COc1cccc2c1OC[C@@H]1[C@H]2Nc2ccc(N3CCS(=O)(=O)CC3)cc2C1(C)C [Number 20, 4-((6aS,12aR)-4-methoxy-7,7-dimethyl-7,12,12a,6a-tetrahydrochromano[4,3-b]quinolin-9-yl)-1,4-thiazaperhydroine-1,1-dione]
ABCA1 Induction Fold Increase over DMSO Vehicle: 6.5 FOLD INCREASE

COc1cccc2c1OCC1C2Nc2ccc(N3CCS(=O)(=O)CC3)cc2C1(C)C (stereo not drawn) [Number 21, 4-(4-methoxy-7,7-dimethyl-7,12,12a,6a-tetrahydrochromano[4,3-b]quinolin-9-yl)-1,4-thiazaperhydroine-1,1-dione]
ABCA1 Induction Fold Increase over DMSO Vehicle: 5.6 FOLD INCREASE

CCOc1cccc2c1OCC1C2Nc2ccc(C(O)(C(F)(F)F)C(F)(F)F)cc2C1(C)C (stereo not drawn) [Number 22, 2-(4-ethoxy-7,7-dimethyl(7,12,12a,6a-tetrahydrochromano[4,3-b]quinolin-9-yl))-1,1,1,3,3,3-hexafluoropropan-2-ol]
ABCA1 Induction Fold Increase over DMSO Vehicle: 4.8 FOLD INCREASE

COc1cccc2c1OCC1C2Nc2ccc(C(N)=O)cc2C1(C)C (stereo not drawn) [Number 23, 4-methoxy-7,7-dimethyl-7,12,12a,6a-tetrahydrochromano[4,3-b]quinoline-9-carboxamide]
ABCA1 Induction Fold Increase over DMSO Vehicle: 6.1 FOLD INCREASE

COc1cccc2c1C1Nc3ccc(C(O)(C(F)(F)F)C(F)(F)F)cc3C(C)(C)C1CO2 (stereo not drawn) [Number 24, 1,1,1,3,3,3-hexafluoro-2-(1-methoxy-7,7-dimethyl(7,12,12a,6a-tetrahydrochromano[4,3-b]quinolin-9-yl))propan-2-ol]
ABCA1 Induction Fold Increase over DMSO Vehicle: 6.5 FOLD INCREASE

CC(C)=CCOc1cccc2c1OCC1C2Nc2ccc(C(O)(C(F)(F)F)C(F)(F)F)cc2C1(C)C (stereo not drawn) [Number 25, 2-[7,7-dimethyl-4-(3-methylbut-2-enyloxy)(7,12,12a,6a-tetrahydrochromano[4,3-b]quinolin-9-yl)]-1,1,1,3,3,3-hexafluoropropan-2-ol]
ABCA1 Induction Fold Increase over DMSO Vehicle: 4.0 FOLD INCREASE
